Test results as given in paper PMC3115495 (Bioorganic & medicinal chemistry letters, 2011).

Legend:
KOR-1 = KOR-1 (Homo sapiens, UniProt P41145); test: ^125I-opioid saturation studies in KOR-1/CHO cells; format: binding; conditions: at the highest concentrations of radioligands used
[1] = molecular target: mu opioid receptor (MOR-1) (UniProt P42866); test: radioligand binding
Sequence of mu opioid receptor (MOR-1) (P42866 whole entry): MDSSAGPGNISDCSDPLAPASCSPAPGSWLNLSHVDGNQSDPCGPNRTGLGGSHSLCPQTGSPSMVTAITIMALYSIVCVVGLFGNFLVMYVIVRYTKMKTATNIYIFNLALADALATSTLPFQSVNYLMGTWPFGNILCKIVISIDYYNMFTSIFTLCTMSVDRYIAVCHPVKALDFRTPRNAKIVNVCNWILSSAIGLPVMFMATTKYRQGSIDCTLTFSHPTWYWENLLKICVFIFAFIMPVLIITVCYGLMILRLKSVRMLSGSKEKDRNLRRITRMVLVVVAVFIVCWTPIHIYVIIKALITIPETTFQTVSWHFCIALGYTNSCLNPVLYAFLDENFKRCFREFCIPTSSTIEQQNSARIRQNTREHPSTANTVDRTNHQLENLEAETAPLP

Sequence of KOR-1 (P41145 whole entry, species assumed): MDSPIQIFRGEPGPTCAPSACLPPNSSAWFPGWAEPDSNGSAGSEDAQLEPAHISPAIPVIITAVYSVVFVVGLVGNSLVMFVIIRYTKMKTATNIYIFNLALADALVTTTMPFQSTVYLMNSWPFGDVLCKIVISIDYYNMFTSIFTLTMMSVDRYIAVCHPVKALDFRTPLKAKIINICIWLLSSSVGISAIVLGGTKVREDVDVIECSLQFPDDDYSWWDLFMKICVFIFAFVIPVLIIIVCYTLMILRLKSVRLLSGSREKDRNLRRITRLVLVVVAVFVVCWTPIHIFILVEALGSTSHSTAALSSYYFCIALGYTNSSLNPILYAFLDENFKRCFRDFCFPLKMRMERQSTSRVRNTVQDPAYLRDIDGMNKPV

| Compound | Specific binding in KOR-1/CHO cells (KOR-1) | Ki [1] [nM] |
| --- | --- | --- |
| CN1CC[C@]23c4c5ccc(O)c4O[C@H]2[C@H](NC(=O)c2cccc([125I])c2)CC[C@@]3(O)[C@H]1C5 [^125IBOxyA (20)] | No specific |  |
| [-DAla^2,MePhe^4,Gly(ol)^5]enkephalin (peptide) |  | 1.55 |
